We go through 9 compounds from patent publication US9216973B2, “Insecticidal compounds” (Syngenta Participations AG, priority 2008, dated 2015).

Common to all, as to assay type: in vivo
Experiment [1] relates to Diabrotica balteata (Corn root worm). Nature of the experiment: Diabrotica balteata larvae test on artificial diet. To be noted: for pest or weed control at 200 ppm: 120 h, 200 ppm (concentration in well 18 ppm), artificial diet, L2 larvae, larval mortality and growth regulation after 5 days. An outline of the steps: (§1)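 Diabrotica balteata L2 larvae (6-10/well) and Plutella xylostella L2 larvae (7-12/well) were placed on diet treated at 200 ppm (18 ppm in well), scored after 5 and 6 days for larval mortality and growth regulation. Heliothis virescens eggs (0-24 h) on treated diet, scored after 4 days for egg/larval mortality and growth regulation; Thrips tabaci on sprayed (200 ppm) sunflower leaf discs, mortality checked after 7 days.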

Experiment [2] deals with Plutella xylostella (Diamond back moth). Nature of the experiment: Plutella xylostella larvae test on artificial diet. To be noted: for pest or weed control at 200 ppm: 144 h, 200 ppm (concentration in well 18 ppm), artificial diet, L2 larvae, larval mortality and growth regulation after 6 days. An outline of the steps: as §1
Experiment [3] deals with Thrips tabaci (Onion thrips). Nature of the experiment: Thrips tabaci sunflower leaf disc spray test. To be noted: for pest or weed control at 200 ppm: foliar, 168 h, 200 ppm spray on sunflower leaf discs, population of mixed ages, mortality after 7 days. An outline of the steps: as §1
The subject of experiment [4] is Heliothis virescens (Tobacco budworm). Nature of the experiment: Heliothis virescens egg test on artificial diet. To be noted: for pest or weed control at 200 ppm: 96 h, 200 ppm (concentration in well 18 ppm), eggs 0-24 h old on artificial diet, egg mortality, larval mortality, growth regulation after 4 days, read-out: control of Heliothis virescens. An outline of the steps:
as §1

Experiment [5] concerns Tetranychus urticae (Two-spotted spider mite). Nature of the experiment: Tetranychus urticae bean leaf disc spray test. To be noted: for pest or weed control at 200 ppm: foliar, 192 h, 200 ppm spray on bean leaf discs, mite populations of mixed ages, egg, larval and adult mortality 8 days later, read-out: control of Tetranychus urticae. An outline of the steps: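 Leaf discs cut from bean plants were laid on agar in 24-well microtiter plates and sprayed with the test solutions at 200 ppm. Once dry, each disc was infested with a mixed-age population of two-spotted spider mites. Eight days later the discs were assessed for egg, larval and adult mortality.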

In the case of `Cc1cc(C2=NCC(c3cc(Cl)cc(Cl)c3)(C(F)(F)F)C2)ccc1C(=O)NC1CS(=O)(=O)C1` (stereo not drawn) [A46], the pest or weed control at 200 ppm in experiment [1], in experiment [2], in experiment [3], in experiment [4] and in experiment [5] was at least 80% each time.
For the compound `Cc1cc(C2=NCC(c3cc(Cl)cc(Cl)c3)(C(F)(F)F)C2)ccc1C(=O)NC1(C)CSC1` (stereo not drawn) [A47], the pest or weed control at 200 ppm in experiment [1], in experiment [2], in experiment [3], in experiment [4] and in experiment [5] was at least 80% each time.
As to `Cc1cc(C2=NCC(c3cc(Cl)cc(Cl)c3)(C(F)(F)F)C2)ccc1C(=O)NC1C[S+]([O-])C1` (stereo not drawn) [A48], the pest or weed control at 200 ppm in experiment [1], in experiment [2], in experiment [3], in experiment [4] and in experiment [5] was at least 80% in each case.
In the case of `Cc1cc(C2=NCC(c3cc(Cl)cc(Cl)c3)(C(F)(F)F)C2)ccc1C(=O)NC1CSC1` (stereo not drawn) [A49], the pest or weed control at 200 ppm in experiment [1], in experiment [2], in experiment [3], in experiment [4] and in experiment [5] was at least 80% in each case.
With `Cc1cc(C2=NOC(c3cc(Cl)cc(Cl)c3)(C(F)(F)F)/C2=N/O)ccc1C(=O)NC1(C)CSC1` (stereo not drawn) [A56], the “effect on mortality, feeding behavior, or growth regulation” value in experiment [1] (same protocol, 200 ppm) is “little or no effect”; in experiment [2] (same protocol, 200 ppm), “little or no effect”; in experiment [3] (same protocol, 200 ppm) it was “little or no effect”; in experiment [4] (same protocol, 200 ppm) it was “little or no effect”; in experiment [5] (same protocol, 200 ppm), “little or no effect”.
Take `Cc1cc(C2=NOC(c3cc(Cl)cc(Cl)c3)(C(F)(F)F)C2F)ccc1C(=O)NC1CS(=O)(=O)C1` (stereo not drawn) [A59]: the pest or weed control at 200 ppm in experiment [1], in experiment [2], in experiment [3], in experiment [4] and in experiment [5] was at least 80% throughout.
For the compound `Cc1cc(C2=NOC(c3cc(Cl)cc(Cl)c3)(C(F)(F)F)C2F)ccc1C(=O)NC1(C)CSC1` (stereo not drawn) [A60], the pest or weed control at 200 ppm in experiment [1], in experiment [2], in experiment [3], in experiment [4] and in experiment [5] was at least 80% in each case.
As for `Cc1cc(C2=NOC(c3cc(Cl)cc(Cl)c3)(C(F)(F)F)C2F)ccc1C(=O)NC1CSC1` (stereo not drawn) [A61], the pest or weed control at 200 ppm in experiment [1], in experiment [2], in experiment [3], in experiment [4] and in experiment [5] was at least 80% in each case.
For the compound `Cc1cc(C2=NOC(c3cc(Cl)cc(Cl)c3)(C(F)(F)F)C2F)ccc1C(=O)NC1C[S+]([O-])C1` (stereo not drawn) [A62], the pest or weed control at 200 ppm in experiment [1], in experiment [2], in experiment [3], in experiment [4] and in experiment [5] was at least 80% each time.
